Tested on: neonatal cardiomyocytes
Assay: Intracellular Ca2+ measurements (fura 2) and cell shortening detection
Format: cell-based, rats
Conditions: maximal isoproterenol stimulation; uninfected and Ad.RSV.PL-infected (10 pfu/cell) cardiomyocytes, 1 Hz
Method: Spontaneously beating cardiomyocytes were prepared from 1 to 2 day old rats and cultured in P-10 medium (GIBCO,BRL) in the presence of 5% fetal calf serum and 10% horse serum for 3 days as described previously in Kang J.X. et al., Proc. Natl. Acad. Sci. U.S.A., 1995, 92:[…] and Kang J.X. and Leaf A., Euro. J. Pharmacol., 1996, 297:97-106, the contents of which are incorporated herein by reference. Measurements of cell shortening and cytosolic Ca^2+ were performed on neonatal cardiomyocytes cultured on round, coated, glass coverslips (0.1 mm thickness, 31 mm diameter) in 35 mm culture dishes. Cells were counted using a hemocytometer. Approximately 5x10^5 cells were plated in each coverslip.
Measurements of intracellular Ca^2+ and cell shortening were performed as described earlier in Hajjar et al. (1997), Kang et al. (1995) and Kang et al (1996), the contents of which are incorporated herein by reference. […] A dual excitation spectrofluorometer (IONOPTIX) was used to record fluorescence emissions (505 nm) elicited from exciting wavelengths of 360 and 380 nm. […] High-contrast microspheres attached to the cell surface of the cardiomyocytes were imaged using a charge-coupled device video camera attached to the microscope, and motion along a selected raster line segment who quantified by a video motion detector system (IONOPTIX).

## CC(C)NCC(O)c1ccc(O)c(O)c1 (stereo not shown) [isoproterenol]
  time course of the Ca^2+ transients: decreased to the same level

— patent EP1374909A2, “Evaluation of, delivery of, and use of agents to treat heart disorders” (THE GENERAL HOSPITAL CORPORATION, priority 1997, dated 1999)
